# Data reported in patent US12486270B2, “Receptor tyrosine kinase inhibitors for treatment of protein kinase modulation-responsive disease or disorder” (THE UNITED STATES OF AMERICA, as represented by the …, priority 2019, dated 2025).
# Assays:
# [1] = biological target: EphB4 (Homo sapiens (Human), UniProt P54760); assay: Endogenous EphB4 tyrosine phosphorylation by ELISA in HT29 cell lysates; type: cell-based; settings: four hours treatment
# Experimental: (§1) ELISA. ELISA plates (ThermoFisher Scientific, Immulon 4HBX, 3855) were coated overnight at 4° C. with capture antibody 75 ng/well in PBS, and blocked with 5% BSA (Sigma-Aldrich, St. Louis, MO) in PBS for two hours at room temperature. Capture antibodies for EphB4 was goat polyclonal antibody (R&D Systems AF3038); for EphA2 was goat polyclonal antibody (R&D Systems AF3035); 10 ug of cell lysate was applied to the ELISA well for two hours at room temperature. The amount of tyrosine phosphorylation was measured with pTyr-HRP antibody (R&D Systems, HAM1676). The ELISA was developed with 3,3′,5,5′-Tetramethylbenzidine (TMB) (ThermoFisher Scientific, 7588927) for 15 minutes and stopped with 1M H2SO4 (Sigma-Aldrich, 258105). Absorbance at 450 nm was measured using POLARstar Optima plate reader (BMG Labtech, Cary, NC). All conditions were tested in duplicate. pEphB2 was measured by ELISA (Ray Biotech, PEL-EphB2-Y) according to the manufacturer's recommendations.
# [2] = tested on: SW620 cells; assay: Cleaved caspase-3 immunofluorescence microscopy in colorectal cancer cells (SW620); type: cell-based, human; settings: 72 hours
# Experimental: Cell viability was also measured by detection of cell-associated cleaved caspase-3. Cells were grown on gelatin-coated glass chamber slides, fixed in 4% paraformaldehyde, immune-stained with rabbit monoclonal antibody to cleaved Caspase 3 (1:100 Cell Signaling Technology) followed by Alexa Fluor 488-conjugated anti-rabbit IgG (1:400 Invitrogen) and mounted with Vectastain containing DAPI (Vector Laboratories). The slides were imaged through a Zeiss LSM780 confocal microscope. Image quantification (cleaved Caspase-3^+ nucleiltotal nuclei) was performed by CellProfiler software.
# [3] = biological target: T1, EphA2 (Homo sapiens (Human), UniProt P29317); assay: Binding affinity to EphA2 by microscale thermophoresis (MST); settings: towards EphA2
# Excerpt: The binding affinities of the compounds to EphA2 were investigated by microscale thermophoresis (MST) (M. Jerabek-Willemsen et al., J. Mol. Struct. 2014, 1077, 101-113).
# [4] = tested on: SW620; assay: Cell cycle analysis by flow cytometry in colorectal cancer cells (SW620); type: cell-based, human; settings: 72 hours; compared to control and NVP/NVP-Iso
# Experimental: Cell cycle was assessed by flow cytometry. Adherent cells were harvested, washed with PBS and fixed for 30 minutes in cold 70% ethanol at 4° C. Cells were washed twice with PBS, treated with 2.5 μg/mL RNaseA (ThermoFisher, 12091039) for 30 minutes at room temperature, and then stained with 10 μg propidium iodide for 15 minutes prior to analysis performed on FACS Canton (BD Biosciences; San Jose, CA) and cell cycled analyzed (FloJo software).
# [5] = biological target: EphB2 (Homo sapiens (Human), UniProt P29323); assay: Endogenous EphB2 tyrosine phosphorylation by ELISA in Colo-205 cell lysates; type: cell-based; settings: four hours treatment
# Experimental: as §1
# [6] = biological target: T1, EphA2; assay: Endogenous EphA2 tyrosine phosphorylation by ELISA in RKO cell lysates; type: cell-based; settings: four hours treatment
# Experimental: as §1
# [7] = tested on: LC3B; assay: LC3B autophagy marker by immunoblotting in HT-29 cells; type: cell-based, human; settings: 72-hour incubation
# Experimental: Western blotting. Protein lysates were separated by SDS-PAGE and then transferred to a nitrocellulose membrane. After blocking, membranes were incubated overnight with antibodies to LC3 (rabbit Monoclonal antibody, Cell Signaling).
# [8] = tested on: SW620 colorectal cancer cell; assay: Cell death by flow cytometry after DRAQ5/PI staining, colorectal cancer cells (SW620); type: cell-based, human; settings: 72 hours
# Experimental: Cell viability was measured by flow cytometry. Briefly, floating and adherent cells were collected by centrifugation, pelleted and suspended in PBS −/− (ThermoFisher, 10010-049) supplemented with 1% BSA (Sigma, A2153), 5 mM EDTA (Qualify Biological, 351-027), 10 mM glucose (Sigma, D9434) and 10 mM HEPES (Corning, 25-060-CI). After the cells (1×10^6 cells/mL) were stained with 25 μM DRAQ5 (BioLegend, San Diego, CA; 424101) for 60 minutes and 2 μg propidium iodide (ThermoFisher, P3566) for 15 minutes, analysis was performed on a FACSCantoll (BD Biosciences, Franklin Lakes, NJ; 338962). Results were analyzed by FloJo software (FlowJo LLC, Ashland, OR).
# T1 sequence (P29317 24-976): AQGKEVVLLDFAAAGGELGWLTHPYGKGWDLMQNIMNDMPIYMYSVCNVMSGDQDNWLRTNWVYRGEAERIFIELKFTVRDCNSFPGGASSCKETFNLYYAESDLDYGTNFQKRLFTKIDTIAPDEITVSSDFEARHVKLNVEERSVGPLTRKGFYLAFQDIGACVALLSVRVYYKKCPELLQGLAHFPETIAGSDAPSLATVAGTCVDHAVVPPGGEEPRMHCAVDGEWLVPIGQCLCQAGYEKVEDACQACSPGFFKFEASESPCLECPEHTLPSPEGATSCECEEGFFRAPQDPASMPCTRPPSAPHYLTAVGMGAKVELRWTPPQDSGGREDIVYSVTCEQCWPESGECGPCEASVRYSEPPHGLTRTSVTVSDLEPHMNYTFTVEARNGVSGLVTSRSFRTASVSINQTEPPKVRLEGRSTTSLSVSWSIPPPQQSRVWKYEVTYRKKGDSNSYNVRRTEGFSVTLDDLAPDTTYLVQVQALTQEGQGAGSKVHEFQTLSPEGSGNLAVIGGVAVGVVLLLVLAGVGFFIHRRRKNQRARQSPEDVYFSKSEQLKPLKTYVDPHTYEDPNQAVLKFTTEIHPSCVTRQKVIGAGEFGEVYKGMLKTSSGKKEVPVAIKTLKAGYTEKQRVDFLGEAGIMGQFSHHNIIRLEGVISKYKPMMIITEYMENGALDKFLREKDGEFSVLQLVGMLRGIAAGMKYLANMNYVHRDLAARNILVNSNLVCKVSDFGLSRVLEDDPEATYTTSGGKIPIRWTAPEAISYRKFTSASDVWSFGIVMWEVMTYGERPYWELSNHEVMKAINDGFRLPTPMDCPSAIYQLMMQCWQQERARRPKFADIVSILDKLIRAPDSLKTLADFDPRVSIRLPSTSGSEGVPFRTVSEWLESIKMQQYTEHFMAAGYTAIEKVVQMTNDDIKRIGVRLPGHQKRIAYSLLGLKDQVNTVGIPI
# Chain of EphB2 (P29323 19-1055): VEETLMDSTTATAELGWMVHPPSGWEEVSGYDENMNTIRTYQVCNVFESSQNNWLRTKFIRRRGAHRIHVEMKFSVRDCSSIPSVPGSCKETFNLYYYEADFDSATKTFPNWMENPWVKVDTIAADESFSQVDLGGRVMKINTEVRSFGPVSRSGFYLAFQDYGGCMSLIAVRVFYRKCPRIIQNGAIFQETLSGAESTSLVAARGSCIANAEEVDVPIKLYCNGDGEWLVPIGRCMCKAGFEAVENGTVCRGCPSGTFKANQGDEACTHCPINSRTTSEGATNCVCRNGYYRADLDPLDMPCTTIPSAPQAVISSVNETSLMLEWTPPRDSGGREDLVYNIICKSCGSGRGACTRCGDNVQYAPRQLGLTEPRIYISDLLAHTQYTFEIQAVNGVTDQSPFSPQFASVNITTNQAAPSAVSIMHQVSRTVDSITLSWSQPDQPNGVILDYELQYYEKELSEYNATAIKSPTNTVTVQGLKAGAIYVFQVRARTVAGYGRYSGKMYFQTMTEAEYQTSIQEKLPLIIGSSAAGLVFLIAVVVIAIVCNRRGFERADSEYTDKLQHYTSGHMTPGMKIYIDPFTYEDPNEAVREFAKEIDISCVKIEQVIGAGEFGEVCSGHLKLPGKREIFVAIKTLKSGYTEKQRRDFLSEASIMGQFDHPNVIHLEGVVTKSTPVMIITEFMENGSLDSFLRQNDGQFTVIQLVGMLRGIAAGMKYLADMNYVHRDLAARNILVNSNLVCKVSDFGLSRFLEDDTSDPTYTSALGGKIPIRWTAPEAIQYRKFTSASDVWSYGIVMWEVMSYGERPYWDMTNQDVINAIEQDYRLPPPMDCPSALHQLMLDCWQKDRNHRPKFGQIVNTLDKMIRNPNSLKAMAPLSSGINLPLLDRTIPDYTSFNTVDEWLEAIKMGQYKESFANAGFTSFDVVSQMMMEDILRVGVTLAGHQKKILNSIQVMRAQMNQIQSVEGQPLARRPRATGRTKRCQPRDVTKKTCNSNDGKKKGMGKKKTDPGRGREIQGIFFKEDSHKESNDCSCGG
# Chain of EphB4 (P54760 16-987): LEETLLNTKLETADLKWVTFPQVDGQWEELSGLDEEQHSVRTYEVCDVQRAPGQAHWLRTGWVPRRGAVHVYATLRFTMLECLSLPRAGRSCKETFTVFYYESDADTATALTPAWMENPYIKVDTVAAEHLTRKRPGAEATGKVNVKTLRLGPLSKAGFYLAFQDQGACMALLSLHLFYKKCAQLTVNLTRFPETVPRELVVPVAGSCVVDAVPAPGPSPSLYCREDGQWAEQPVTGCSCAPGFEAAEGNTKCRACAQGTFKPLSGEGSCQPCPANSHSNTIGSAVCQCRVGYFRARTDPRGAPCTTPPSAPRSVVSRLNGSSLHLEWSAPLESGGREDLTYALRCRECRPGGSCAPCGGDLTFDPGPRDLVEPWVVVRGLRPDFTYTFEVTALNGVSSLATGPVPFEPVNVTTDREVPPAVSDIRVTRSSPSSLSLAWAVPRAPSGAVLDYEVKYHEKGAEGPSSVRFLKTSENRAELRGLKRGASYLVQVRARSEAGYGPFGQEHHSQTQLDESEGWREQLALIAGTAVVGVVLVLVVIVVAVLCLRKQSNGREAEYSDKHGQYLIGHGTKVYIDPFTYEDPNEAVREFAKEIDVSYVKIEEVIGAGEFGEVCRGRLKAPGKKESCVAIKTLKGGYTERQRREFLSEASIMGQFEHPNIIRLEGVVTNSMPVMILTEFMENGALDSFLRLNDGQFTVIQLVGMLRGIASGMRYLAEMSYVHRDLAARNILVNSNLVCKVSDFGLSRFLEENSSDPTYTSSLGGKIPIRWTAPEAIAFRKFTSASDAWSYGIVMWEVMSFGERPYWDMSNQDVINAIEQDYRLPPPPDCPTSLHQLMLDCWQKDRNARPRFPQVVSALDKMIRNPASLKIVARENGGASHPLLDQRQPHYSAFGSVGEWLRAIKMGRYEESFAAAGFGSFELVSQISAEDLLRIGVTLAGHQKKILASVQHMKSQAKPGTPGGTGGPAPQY
compound,measurement,setting,value
"Cc1ccc(C(=O)Nc2cccc(C(F)(F)F)c2)cc1Nc1nc(-c2cnccn2)nc2c1cnn2C [@1, 4-Methyl-3-((1-methyl-6-(pyrazin-2-yl)-1H-pyrazolo[3,4-d]pyrimidin-4-yl)amino)-N-(3-(trifluoromethyl)phenyl)benzamide]",inhibitory activity for p-EphB4 compared to NVP,[1],comparable or only slightly reduced inhibitory activity
same,cleaved caspase-3 detection in treated cells,[2],only in a minority of cells
same,Kd,[3],3 nM
same,distribution of cells within the cell cycle,[4],marked reduction of the proportion of cells within the G2M phase
same,inhibitory activity for p-EphB2 compared to NVP,[5],comparable or only slightly reduced inhibitory activity
same,inhibitory activity for p-EphA2 compared to NVP,[6],comparable or only slightly reduced inhibitory activity
same,induction of autophagosome marker LC3B (immunoblotting),[7],failure
same,colorectal cancer cell death by flow cytometry (DRAQ5/PI),[8],no or minimal colorectal cancer cell death
